Tests used:
[1] = tested on: ecto-nucleotide pyrophosphatase/phosphodiesterase 1 (ENPP1); details: versus naturally produced 2′3′-cGAMP; Kato K. et al.; cited from earlier work
B16F10 tumor recurrence = test: Treatment of surgically removed B16F10 tumor and re-challenge; assay type: in vivo, mice
Source text: 2×10^5 B16F10 cells were subcutaneously injected to the right rear flank of C57BL/6 female mice. Six days after tumor inoculation, B16F10 tumor-bearing mice were randomly divided into 4 experimental groups (n=8 for each group): untreated, 1×cGAMP-S plus EPs, 3×cGAMP-S, and 1×cGAMP-S plus cGAMP-MPs, respectively. ˜99% of tumor volume was surgically removed, leaving ˜1% residual tumor to mimic residual microtumors. Upon the removal of tumors, cGAMP-MPs (10m of cGAMP-S, 5 PLGA-1 microdevices containing 10 μg of cGAMP, and 5 PLGA-2 microdevices containing 10 μg of cGAMP) or 1×cGAMP-S plus EPs (10m of cGAMP-S, 5 each of empty PLGA-1 and PLGA-2 microdevices) in 50 μL MC solution were directly applied to the surgical bed through a micropipette. For 3×cGAMP-S treated group, 10 μg of cGAMP-S was applied to the surgical bed after surgery followed by intratumoral injections of 10 μg of cGAMP at days 4 and 8 post-surgery (FIG. 6A). The wound was closed by an autoclip wound clip system. Tumor size was measured with a digital caliper every other day starting at day 7 post tumor inoculation. For the re-challenge experiment, 2×10^5 B16F10 cells were subcutaneously injected to the left rear flank of treated mice with complete responses. Tumor size was measured every other day with a digital caliper.

## Nc1nc2c(ncn2[C@@H]2O[C@@H]3COP(=O)(O)O[C@H]4[C@@H](O)[C@H](n5cnc6c(N)ncnc65)O[C@@H]4COP(=O)(O)O[C@H]3[C@H]2O)c(=O)[nH]1 [cGAMP-S, 3′3′-cGAMP]
[1]
  stability against ENPP1: enhanced stability
B16F10 tumor recurrence; cGAMP-MPs single application, cGAMP-S three doses, untreated 100%
  tumor recurrence rate: 25%
B16F10 tumor recurrence; single dose of cGAMP-S plus EPs
  tumor recurrence rate: 87.5%
B16F10 tumor recurrence; tumor-free mice re-challenged with B16F10 cells
  survival after re-challenge: prolonged survival time
B16F10 tumor recurrence; tumor-free mice re-challenged with B16F10 cells at day 60
  tumor growth after re-challenge versus naïve mice: significantly slower

— patent publication US12390537B2, “Compositions of polymeric microdevices and methods of use thereof in cancer immunotherapy” (Massachusetts Institute of Technology, priority 2020, dated 2025)
